Results: patent US20080004302A1, “Novel Compounds” (ASTRAZENECA AB, priority 2006, published 2008)

Legend:
FGFR1 kinase = FGFR1 kinase (Homo sapiens, UniProt P11362); assay: Kinase assay (using Caliper technology); format: biochemical; settings: FGFR1 kinase, Caliper; upper bound of bin; read-out: IC50
Experimental: To determine inhibition of FGFR activity, kinase assays were conducted using Caliper technology.
Kinase activity assays were performed in Greiner 384-well low volume plates, with a total reaction volume of 12ul per well. […] The substrate for each assay was a custom peptide with fluorescent tag (13 amino acids in length) the sequence of which was specific for FGFR1 kinase.
Compounds were serially diluted in 5% (v/v) DMSO, before being added to assay plates.
Assay plates were incubated at room temperature for 1.5 h, before the reaction was stopped with the addition of buffer [comprising: 100 mM HEPES—pH7.5, 0.033% Brij-35, 0.22% Caliper Coating Reagent #3, 88mM EDTA, 5% DMSO]. Stopped assay plates were then read using the Caliper LabChip® LC3000 (which uses microfludics to measure a shift in mobility between fluorescent labelled peptide and the FGFR1 kinase—phosphorylated form of this peptide).

Erk phosphorylation = assay: Growth factor (bFGF) stimulated Erk phosphorylation in NIH 3T3 cells; settings: Mus musculus, NIH3T3, NIH 3T3 cells, 3 ng/ml bFGF; upper bound of bin
FGFR1 IIIc = biological target: T1, FGFR1 IIIc (Homo sapiens, UniProt P11362); assay: Cell based inhibition of transiently expressed FGFR1 IIIc phosphorylation via use of ECHO technology (Cos-1 cells); settings: Cos-1 cells, phospho-FGFR1, ECHO dosing; upper bound of bin; read-out: IC50
T1 construct: host or cells: Cos-1
T1 sequence (P11362 22-822): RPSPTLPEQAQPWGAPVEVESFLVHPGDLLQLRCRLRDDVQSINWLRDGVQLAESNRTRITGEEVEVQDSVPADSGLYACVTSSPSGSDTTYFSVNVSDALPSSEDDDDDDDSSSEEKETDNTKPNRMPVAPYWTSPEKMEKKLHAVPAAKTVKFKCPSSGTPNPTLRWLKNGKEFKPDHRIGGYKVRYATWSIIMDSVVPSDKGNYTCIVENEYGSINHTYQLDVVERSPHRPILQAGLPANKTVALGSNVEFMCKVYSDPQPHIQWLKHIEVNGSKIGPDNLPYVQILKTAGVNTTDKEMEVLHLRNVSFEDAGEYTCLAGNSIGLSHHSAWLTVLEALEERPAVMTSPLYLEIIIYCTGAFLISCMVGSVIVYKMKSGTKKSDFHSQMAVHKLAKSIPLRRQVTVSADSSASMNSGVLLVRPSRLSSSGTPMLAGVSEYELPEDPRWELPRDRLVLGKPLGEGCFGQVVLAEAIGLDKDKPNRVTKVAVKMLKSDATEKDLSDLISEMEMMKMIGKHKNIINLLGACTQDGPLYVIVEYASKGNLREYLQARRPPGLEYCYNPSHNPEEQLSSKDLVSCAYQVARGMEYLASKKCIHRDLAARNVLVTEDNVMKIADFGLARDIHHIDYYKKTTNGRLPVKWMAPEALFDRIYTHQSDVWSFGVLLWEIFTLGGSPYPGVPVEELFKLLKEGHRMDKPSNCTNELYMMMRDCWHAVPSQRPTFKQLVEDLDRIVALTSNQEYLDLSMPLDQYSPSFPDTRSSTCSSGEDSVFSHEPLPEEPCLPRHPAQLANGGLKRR
Experimental: This assay is designed to detect inhibitors of transiently expressed FGFR1 phosphorylation by antibody staining of fixed cells detected using ArrayScan technology.
To undertake the assay, Cos-1 cells were harvested at 90-95% confluence for cell transfection. For each 96-well plate, 24μl Lipofectamine 2000 was added to 809 ul OptiMEM and incubated at room temperature for 5 minutes. […] Equal volumes of DNA and Lipofectamine 2000 were combined (DNA: Lipid=1:1.2 ratio) and incubated at room temperature for 20 minutes.
The harvested Cos-1 cells are counted using a coulter counter and diluted further with 1% FCS/DMEM to 2.5×10^5 cells/ml. For each 96-well, 8.33 ml cells were required. […] 70 μl of media was aspirated from the assay plate using the Quadra before the plate was transferred onto the ECHO 550. […] Compound transfer to the assay plate on the ECHO 550 was at concentration ranges 1)10 μM, 2) 3 μM, 3) 1 μM, 4) 0.3 μM, 5) 0.1 μM, 6) […].
The plates were gently tapped to mix compound in with the cell media and left to incubate at 37° C. with 5% CO2 for 1 hour.
Media was removed from the wells using vacuum aspiration; cells were fixed by adding 50 μl of 100% methanol to each well and incubated at room temperature for 20 minutes.
The plates were read on an Arrayscan (Cellomics).

human IGF1R = biological target: T2, human IGF1R (Homo sapiens, UniProt P08069); assay: Inhibition of insulin-like growth factor-1 receptor phosphorylation in R+ cells; format: cell-based; settings: 30 nM IGF1, read-out: IGF cell class
T2 construct: expressed in transfected cells; host or cells: R+ cells (R- mouse fibroblasts transfected with human IGF1R)
T2 sequence (P08069 31-1367): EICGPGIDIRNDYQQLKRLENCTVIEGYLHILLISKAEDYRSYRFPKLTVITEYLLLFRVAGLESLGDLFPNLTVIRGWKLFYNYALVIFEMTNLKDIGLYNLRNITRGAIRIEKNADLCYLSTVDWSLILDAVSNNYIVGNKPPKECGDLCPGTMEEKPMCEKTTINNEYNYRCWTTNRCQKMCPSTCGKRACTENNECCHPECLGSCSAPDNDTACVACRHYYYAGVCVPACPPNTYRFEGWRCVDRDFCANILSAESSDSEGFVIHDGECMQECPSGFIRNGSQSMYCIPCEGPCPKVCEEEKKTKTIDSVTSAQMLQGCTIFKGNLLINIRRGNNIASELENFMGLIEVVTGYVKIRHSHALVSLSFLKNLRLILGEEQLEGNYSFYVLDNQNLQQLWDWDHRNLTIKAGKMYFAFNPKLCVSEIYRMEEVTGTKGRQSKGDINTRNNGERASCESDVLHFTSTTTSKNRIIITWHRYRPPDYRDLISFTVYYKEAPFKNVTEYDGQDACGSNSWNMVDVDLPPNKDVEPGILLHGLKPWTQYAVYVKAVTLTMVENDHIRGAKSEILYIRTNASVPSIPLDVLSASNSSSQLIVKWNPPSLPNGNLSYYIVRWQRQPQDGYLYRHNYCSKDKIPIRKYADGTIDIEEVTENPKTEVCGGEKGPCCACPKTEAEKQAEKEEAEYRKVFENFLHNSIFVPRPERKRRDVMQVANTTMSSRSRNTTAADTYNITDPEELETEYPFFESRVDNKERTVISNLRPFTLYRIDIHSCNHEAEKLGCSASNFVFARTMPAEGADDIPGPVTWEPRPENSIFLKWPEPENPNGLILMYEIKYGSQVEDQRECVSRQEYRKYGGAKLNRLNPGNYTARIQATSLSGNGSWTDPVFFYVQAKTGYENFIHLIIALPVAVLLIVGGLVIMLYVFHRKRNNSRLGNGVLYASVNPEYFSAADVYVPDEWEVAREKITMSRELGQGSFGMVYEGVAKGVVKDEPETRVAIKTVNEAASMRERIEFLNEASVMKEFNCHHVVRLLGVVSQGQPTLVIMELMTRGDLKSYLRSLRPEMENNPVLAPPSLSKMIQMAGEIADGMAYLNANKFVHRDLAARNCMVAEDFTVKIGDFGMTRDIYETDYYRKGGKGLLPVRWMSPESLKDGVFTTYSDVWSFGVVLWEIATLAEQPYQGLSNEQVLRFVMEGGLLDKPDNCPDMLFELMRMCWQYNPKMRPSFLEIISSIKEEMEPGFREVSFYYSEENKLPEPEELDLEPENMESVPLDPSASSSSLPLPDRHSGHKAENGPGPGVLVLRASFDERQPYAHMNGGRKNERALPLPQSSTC
Experimental: This immunofluorescence end point cell assay measures the ability of a test compound to reduce the measured levels of IGF1R phosphorylation after IGF1 stimulation in R^+ cells. […] were derived by transfection of R^− mouse fibroblast cells with human IGF1R.
(+5% CO2) incubator for 30 minutes.
Following the compound treatment, the R^+ cells were stimulated with a final concentration of 30 nM IGF1 (Gropep 1M001) for 20 minutes at 37° C. […] Plates were incubated for 1 hour at room temperature. […] Additionally, in-house antibodies raised against phospho […] were also used at a suitable titre determined for each batch.
The plates were incubated at room temperature for one hour. […] After addition of 100 μl/well PBS the plates were sealed with a black seal.
The Green Fluorescent phospho IGF1R -associated signal in each well was measured using an Acumen Explorer HTS Reader (TTP Labtech Ltd., Cambridge). […] The instrument is a laser-scanning fluorescence microplate cytometer, which samples the well at regular intervals and uses threshold algorithms to identify all fluorescent intensities above the solution background without the need to generate and analyse an image. These fluorescent objects can be quantified and provide a measure of the phospho IGF1R levels in cells. Fluorescence dose response data obtained with each compound was exported into a suitable software package (such as Origin) to perform curve fitting analysis. Phospho-IGF1R levels in response to compound treatment versus stimulated and unstimulated controls were expressed as an IC50 value.

Sequence of FGFR1 kinase (P11362 22-822): as the sequence (P11362 22-822) above

SMILES | IC50 (FGFR1 kinase) | IC50 (FGFR1 IIIc) | IC50 (human IGF1R) | IC50 (Erk phosphorylation)
c1ccc(OCc2cc(Nc3ccnc(NCc4cc(C5CC5)no4)n3)[nH]n2)cc1 [Example 35, N-[(3-cyclopropyl1,2-oxazol-5-yl)methyl]-N′-[5-(phenoxymethyl)-2H-pyrazol-3-yl]pyrimidine-2,4-diamine] | < 10 µM | – | > 10 µM | < 1 µM
NC(=O)c1cc(CNc2nccc(Nc3cc(COc4ccccc4)n[nH]3)n2)on1 [Example 36, 5-[[[4-[[5-(phenoxymethyl)-2H-pyrazol-3-yl]amino]pyrimidin-2-yl]amino]methyl]1,2-oxazole-3-carboxamide] | < 10 µM | < 30 µM | > 10 µM | –
Cc1cc(CNc2nccc(Nc3cc(CCc4ccc(OCc5ccccc5)cc4)[nH]n3)n2)on1 [Example 37, N-[(3-methyl1,2-oxazol-5-yl)methyl]-N′-[5-[2-(4-phenylmethoxyphenyl)ethyl]-2H-pyrazol-3-yl]pyrimidine-2,4-diamine] | < 30 µM | – | 1 to 10 µM | < 10 µM
Cc1cc(CNc2nccc(Nc3cc(CCc4cccc(N5CCOCC5)c4)[nH]n3)n2)on1 [Example 55, N-[(3-methyl1,2-oxazol-5-yl)methyl]-N′-[5-[2-(3-morpholin-4-ylphenyl)ethyl]-1H-pyrazol-3-yl]pyrimidine-2,4-diamine] | < 10 µM | – | > 10 µM | < 10 µM
CCc1cccc(COc2cc(Nc3ccnc(NCc4cc(C)no4)n3)n[nH]2)c1 [Example 74, N′-[5-[(3-ethylphenyl)methoxy]-2H-pyrazol-3-yl]-N-[(3-methyl1,2-oxazol-5-yl)methyl]pyrimidine-2,4-diamine] | < 10 µM | – | > 10 µM | < 1 µM
COCC(C)Oc1cc(Nc2ccnc(NCc3cc(C4CC4)no3)n2)n[nH]1 (centres unmarked) [Example 76, N-[(3-cyclopropyl-1,2-oxazol-5-yl)methyl]-N′-[5-(1-methoxypropan-2-yloxy)-1H-pyrazol-3-yl]pyrimidine-2,4-diamine] | – | – | > 10 µM | < 1 µM
CCOC(=O)c1cc(CNc2nccc(Nc3cc(OC(C)C)n[nH]3)n2)on1 [Example 77, Ethyl 5-[[[4-[(5-propan-2-yloxy-2H-pyrazol-3-yl)amino]pyrimidin-2-yl]amino]methyl]1,2-oxazole-3-carboxylate] | – | – | – | < 1 µM
CC(C)Oc1cc(Nc2ccnc(NCc3cc(-c4cncnc4)no3)n2)n[nH]1 [Example 81, N′-(5-propan-2-yloxy-2H-pyrazol-3-yl)-N-[(3-pyrimidin-5-yl1,2-oxazol-5-yl)methyl]pyrimidine-2,4-diamine] | < 10 µM | – | – | < 10 µM
CC(C)Oc1cc(Nc2ccnc(NCc3cc(C4CCOCC4)no3)n2)[nH]n1 [Example 85, N-[[3-(oxan-4-yl)1,2-oxazol-5-yl]methyl]-N′-(5-propan-2-yloxy-2H-pyrazol-3-yl)pyrimidine-2,4-diamine] | < 10 µM | – | – | < 10 µM
Cc1cc(CNc2nccc(Nc3cc(OCc4cccc(N5CCOCC5)c4)[nH]n3)n2)on1 [Example 87, N-[(3-methyl1,2-oxazol-5-yl)methyl]-N′-[5-[(3-morpholin-4-ylphenyl)methoxy]-2H-pyrazol-3-yl]pyrimidine-2,4-diamine] | < 10 µM | – | > 10 µM | < 10 µM
Cc1cc(CNc2nccc(Nc3cc(OCc4cccc(C(=O)O)c4)[nH]n3)n2)on1 [Example 98, 3-[[5-[[2-[(3-methyl1,2-oxazol-5-yl)methylamino]pyrimidin-4-yl]amino]-1H-pyrazol-3-yl]oxymethyl]benzoic acid] | < 10 µM | – | – | < 10 µM
CNC(=O)c1cc(C)cc(CCc2cc(Nc3ccnc(NCc4cc(C)no4)n3)n[nH]2)c1 [Example 142, N,3-dimethyl-5-[2-[5-[[2-[(3-methyl-1,2-oxazol-5-yl)methylamino]pyrimidin-4-yl]amino]-1H-pyrazol-3-yl]ethyl]benzamide] | < 30 µM | < 10 µM | – | –
CNC(=O)c1cc(OC)cc(CCc2cc(Nc3ccnc(NCc4cc(C)no4)n3)n[nH]2)n1 [Example 143, 4-Methoxy-N-methyl-6-[2-[5-[[2-[(3-methyl-1,2-oxazol-5-yl)methylamino]pyrimidin-4-yl]amino]-1H-pyrazol-3-yl]ethyl]pyridine-2-carboxamide] | < 10 µM | < 30 µM | – | –

The next lines start with results.

IC50 (FGFR1 kinase) | IC50 (FGFR1 IIIc) | IC50 (human IGF1R) | SMILES | IC50 (Erk phosphorylation)
< 1 µM | – | – | COCCCc1cc(Nc2ccnc(NCc3cc(C4CCC4)no3)n2)n[nH]1 [Example 23, N-[(3-Cyclobutyl1,2-oxazol-5-yl)methyl]-N′-[5-(3-methoxypropyl)-1H-pyrazol-3-yl]pyrimidine-2,4-diamine] | < 1 µM
< 1 µM | < 1 µM | 1 to 10 µM | COc1ccc(CCc2cc(Nc3ccnc(NCc4cc(-c5ncccn5)no4)n3)n[nH]2)cc1 [Example 32, N′-[5-[2-(4-methoxyphenyl)ethyl]-2H-pyrazol-3-yl]-N-[(3-pyrimidin-2-yl-1,2-oxazol-5-yl)methyl]pyrimidine-2,4-diamine] | –
< 1 µM | < 10 µM | > 10 µM | NC(=O)c1cc(CNc2nccc(Nc3cc(CCc4ccccc4)n[nH]3)n2)on1 [Example 50, 5-[[[4-[(5-phenethyl-2H-pyrazol-3-yl)amino]pyrimidin-2-yl]amino]methyl]-1,2-oxazole-3-carboxamide] | –
< 1 µM | – | – | CC(C)Oc1cc(Nc2ccnc(NCc3cc(C(=O)N(C)C)no3)n2)[nH]n1 [Example 80, N,N-dimethyl-5-[[[4-[(5-propan-2-yloxy-2H-pyrazol-3-yl)amino]pyrimidin-2-yl]amino]methyl]1,2-oxazole-3-carboxamide] | < 10 µM
< 1 µM | – | – | CC(C)Oc1cc(Nc2ccnc(NCc3cc(C4CCOC4)no3)n2)[nH]n1 (centres unmarked) [Example 83, N-[[3-(oxolan-3-yl)1,2-oxazol-5-yl]methyl]-N′-(5-propan-2-yloxy-2H-pyrazol-3-yl)pyrimidine-2,4-diamine] | < 10 µM
< 0.2 µM | – | – | CCOc1cc(Nc2ccnc(NCc3cc(C)no3)n2)n[nH]1 [Example 86, N′-(5-ethoxy-1H-pyrazol-3-yl)-N-[(3-methyl1,2-oxazol-5-yl)methyl]pyrimidine-2,4-diamine] | < 1 µM
< 1 µM | – | 1 to 10 µM | Cc1cc(CNc2nccc(Nc3cc(OCc4cccc(NC(=O)OC(C)(C)C)c4)[nH]n3)n2)on1 [Example 89, tert-Butyl N-[3-[[5-[[2-[(3-methyl1,2-oxazol-5-yl)methylamino]pyrimidin-4-yl]amino]-1H-pyrazol-3-yl]oxymethyl]phenyl]carbamate] | < 1 µM
< 1 µM | < 1 µM | > 10 µM | Cc1cc(CNc2nccc(Nc3cc(OCCOc4ccccc4)[nH]n3)n2)on1 [Example 101, N-[(3-methyl1,2-oxazol-5-yl)methyl]-N′-[5-(2-phenoxyethoxy)-2H-pyrazol-3-yl]pyrimidine-2,4-diamine] | –
< 0.2 µM | – | – | NC(=O)c1cc(CNc2nccc(Nc3cc(CCc4ccco4)n[nH]3)n2)on1 [Example 112, 5-[[[4-[[5-[2-(2-furyl)ethyl]-2H-pyrazol-3-yl]amino]pyrimidin-2-yl]amino]methyl]1,2-oxazole-3-carboxamide] | < 10 µM
